Legend:
[1] = suitable genotoxicity assays (e.g., Ames II assay); type: cell-based
Description: The mixture was stirred for 30 minutes at −10° C. Epichlorohydrin (1.9 liters, 24.2 moles) was added via dropping funnel at −10 to −5° C. The solution was allowed to warm up to room temperature and then was heated for 16 hours at a temperature of from 75 to 82° C. After cooling down to ambient temperature, the mixture was added to cold tap water (12 liters). Ethyl acetate (5 liters) was added to the mixture, which was stirred for 10 minutes and separated. The aqueous layer was extracted again with additional ethyl acetate (3 liters). The combined ethyl acetate extracts were washed twice with brine (2×6 liters), dried over anhydrous sodium sulfate (600 grams), and filtered. The solvent was removed under reduced pressure to give 887 grams of crude product as a purple oil. The crude product was dissolved in toluene (600 milliliters) and passed over a silica gel pad (1.4 kilograms), and eluted with a mixture of toluene and heptane (8 parts toluene to 2 parts heptane). The fractions containing product were combined and evaporated under reduced pressure. The product was mostly the desired diepoxide (756 grams, yellow oil which crystallizes in time), with some monoepoxide present. The purified material (756 grams) was dissolved at 70° C. in 2-propanol (2.3 liters) and then allowed to cool down to room temperature overnight. […]

MCF-7, clone WS8, cells = test: MCF-7 cell proliferation assay of estrogenic activity; type: cell-based, human; conditions: logarithmic (base 10) Relative Proliferative Effect relative to 17-beta estradiol; values stated as expected or measured
From the text: The MCF-7 assay uses MCF-7, clone WS8, cells to measure whether and to what extent a substance induces cell proliferation via estrogen receptor (ER)-mediated pathways. The method is described in “Test Method Nomination: MCF-7 Cell Proliferation Assay of Estrogenic Activity” submitted for validation by CertiChem, Inc. to the National Toxicology Program Interagency Center for the Evaluation of Alternative Toxicological Methods (NICEATM) on Jan. 19, 2006 (available online at http://iccvam.niehs.nih.gov/methods/endocrine/endodocs/SubmDoc.pdf).
A brief summary of the method of the aforementioned MCF-7 assay is provided below. MCF-7, clone WS8, cells are maintained at 37° C. in RMPI (or Roswell Park Memorial Institute medium) containing Phenol Red (e.g., GIBCO Catalog Number 11875119) and supplemented with the indicated additives for routine culture. An aliquot of cells maintained at 37° C. are grown for 2 days in phenol-free media containing 5% charcoal stripped fetal bovine serum in a 25 cm^2 tissue culture flask. Using a robotic dispenser such as an epMotion 5070 unit, MCF-7 cells are then seeded at 400 cells per well in 0.2 ml of hormone-free culture medium in Corning 96-well plates. The cells are adapted for 3 days in the hormone-free culture medium prior to adding the chemical to be assayed for estrogenic activity. The media containing the test chemical is replaced daily for 6 days. At the end of the 7-day exposure to the test chemical, the media is removed, the wells are washed once with 0.2 ml of HBSS (Hanks' Balanced Salt Solution), and then assayed to quantify amounts of DNA per well using a micro-plate modification of the Burton diphenylamine (DPA) assay, which is used to calculate the level of cell proliferation.
RPE is the ratio between the EC50 of the test chemical and the EC50 of the control substance 17-beta estradiol times 100, where EC50 is “effective concentration 50%” or half-maximum stimulation concentration for cell proliferation measured as total DNA in the MCF-7 assay.

human estrogen receptor = target: T1, human estrogen receptor (Homo sapiens, UniProt P03372); test: suitable in vitro assay whose results are directly correlated to the MCF-7 assay; conditions: in vitro assay correlated to MCF-7 assay through common reference compounds
T1 sequence (P03372 1-595): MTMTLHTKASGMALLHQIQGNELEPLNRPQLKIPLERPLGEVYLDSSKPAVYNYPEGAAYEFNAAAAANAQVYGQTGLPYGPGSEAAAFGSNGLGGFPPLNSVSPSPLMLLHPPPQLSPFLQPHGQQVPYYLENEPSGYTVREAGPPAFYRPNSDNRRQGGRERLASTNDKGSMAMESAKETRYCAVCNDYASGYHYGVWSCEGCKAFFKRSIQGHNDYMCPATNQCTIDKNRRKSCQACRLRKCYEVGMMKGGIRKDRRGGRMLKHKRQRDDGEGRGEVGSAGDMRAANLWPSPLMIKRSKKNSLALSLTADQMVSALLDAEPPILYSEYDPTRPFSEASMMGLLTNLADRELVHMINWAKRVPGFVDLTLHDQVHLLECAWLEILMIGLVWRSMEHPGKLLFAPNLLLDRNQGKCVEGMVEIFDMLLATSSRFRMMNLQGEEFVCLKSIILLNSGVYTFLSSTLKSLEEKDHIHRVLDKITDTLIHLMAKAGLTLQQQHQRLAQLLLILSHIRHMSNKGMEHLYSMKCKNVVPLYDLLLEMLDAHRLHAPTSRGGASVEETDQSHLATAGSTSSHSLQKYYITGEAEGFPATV

| SMILES | genotoxicity [1] | Log RPE (MCF-7, clone WS8, cells) | estrogenic activity (human estrogen receptor) |
| --- | --- | --- | --- |
| CCCC(c1cc(C(C)(C)C)c(OCC2CO2)cc1C)c1cc(C(C)(C)C)c(OCC2CO2)cc1C (stereo not shown) | non-genotoxic |  |  |
| C[C@]12CC[C@@H]3c4ccc(O)cc4CC[C@H]3[C@@H]1CC[C@@H]2O [17β-estradiol, reference compound] |  | 2.00 |  |
| Oc1ccc(Cc2ccc(O)cc2)cc1 [Bisphenol F, reference compound] |  | −2 |  |
| O=S(=O)(c1ccc(O)cc1)c1ccc(O)cc1 [Bisphenol S, reference compound] |  | −2 |  |
| CC(C)(C)c1cc(Cc2cc(C(C)(C)C)c(OCC3CO3)c(C(C)(C)C)c2)cc(C(C)(C)C)c1OCC1CO1 (stereo not shown) [Diglycidyl ether of 4,4′-methylenebis(2,6-di-tert-butylphenol)] | non-genotoxic |  |  |
| O=c1c(-c2ccc(O)cc2)coc2cc(O)cc(O)c12 [Genistein, reference compound] |  | −2 |  |
| Cc1cc(C(C)(C)c2cc(C)c(O)c(C)c2)cc(C)c1O [Structure 1] |  | −2 |  |
| Cc1cc(CCc2cc(C)c(O)c(C)c2)cc(C)c1O [Structure 2] |  | −3 |  |
| CC(c1ccc(O)cc1)(c1ccc(O)cc1)c1ccc(O)cc1 [Structure 3] |  | −3 |  |
| CC(c1ccccc1)(c1ccc(O)cc1)c1ccc(O)cc1 [Structure 4] |  | −3 |  |
| Cc1cc(Cc2cc(C)c(O)c(C)c2)cc(C)c1O [Structure 6] |  | less than −4 | do not exhibit appreciable estrogenic activity |
| CCCC(c1cc(C(C)(C)C)c(O)cc1C)c1cc(C(C)(C)C)c(O)cc1C [Structure 7, 4,4′-butylidenebis(2-t-butyl-5-methylphenol)] |  |  | do not exhibit appreciable estrogenic activity |
| CCCC(c1cc(C(C)(C)C)c(O)cc1C)c1cc(C(C)(C)C)c(O)cc1C [Structure 7] |  | less than −4 |  |
| CC(C)(C)c1cc(Cc2cc(C(C)(C)C)c(O)c(C(C)(C)C)c2)cc(C(C)(C)C)c1O [Structure 8] |  | less than −4 | do not exhibit appreciable estrogenic activity |
| Cc1cc(Cc2cc(C)cc(C(C)(C)C)c2O)c(O)c(C(C)(C)C)c1 [Structure 9] |  | less than −4 | do not exhibit appreciable estrogenic activity |
| CC(C)(c1ccc(O)cc1)c1ccc(C(C)(C)c2ccc(O)cc2)cc1 [Structure 10] |  | less than −4 |  |
| Oc1ccccc1Cc1ccccc1O [Structure 11] |  | less than −4 |  |
| CC(C)(C)c1cc(O)c(C(C)(C)C)cc1O [Structure 12] |  |  | do not exhibit appreciable estrogenic activity |
| Cc1cc(Cc2cc(C)cc(C3(C)CCCCC3)c2O)c(O)c(C2(C)CCCCC2)c1 [Structure 13] |  | less than −4 |  |
| CCc1cc(Cc2cc(CC)cc(C(C)(C)C)c2O)c(O)c(C(C)(C)C)c1 [Structure 15] |  | less than −4 |  |
| C/C=C(/C(=C/C)c1ccc(O)cc1)c1ccc(O)cc1 [dienestrol, reference compound] |  | about 2 |  |
| CC/C(=C(/CC)c1ccc(O)cc1)c1ccc(O)cc1 [diethylstilbestrol, reference compound] |  | about 2 |  |
